Measured values reported in patent US9856225B2, “Substituted phenazines as antimicrobial agents” (University of Florida Research Foundation, Incorporated, priority 2013, dated 2018).
Like-named read-outs stand apart in the source and are kept apart here.

Experiments:
Assay type in all cases: cell-based
[1] = test system: Acinetobacter baumannii (ATCC 19606) pre-formed biofilm; assay: Biofilm dispersion, crystal violet; details: for percent biofilm dispersion at 100 µM: Acinetobacter baumannii, ATCC19606, 24 h
Description: Biofilm Dispersion Protocol for A. baumannii (ATCC 19606): To a 96-well plate was added a volume of 100 μL Mueller-Hinton broth that was inoculated with ˜7×10^6 colony forming units per milliliter (corresponding to an OD600 of 0.01 prepared directly from an overnight culture). Two columns of wells were left blank to serve as our background wells. A lid was placed on the 96-well plate which was wrapped in suran wrap, placed in a humidifying chamber and incubated under static conditions at room temperature for 24 hours to establish bacterial biofilms. Following this initial incubation at room temperature, the media and planktonic bacteria were then removed from 96-well plates and the wells were then washed with water. Fresh medium was then added and series of ten two-fold serial dilutions of text compound were made in the 96-well plate using a multichannel pipette. A lid was then placed on 96-well plate which was then wrapped in suran wrap, placed in a humidifying chamber and incubated under static conditions at 37° C. for 24 hours. Following this second incubation to test compounds against pre-formed biofilms, the media and planktonic bacteria were again removed from 96-well plates and the wells were then washed with water. The bacterial biofilms within the microtiter wells were stained with 200 μL of an aqueous 0.1% crystal violet solution that was allowed to stand for 10-20 minutes. The crystal violet stain was then removed, the wells were rinsed with water and dried. The crystal violet stain that remained on the inside of the wells (i.e., stained bacterial biofilm) on the inside of the wells was solubilized by the addition of 200 μL ethanol and absorbance was read at OD540 using a spectrophotometer. Note: The concentration range tested for each compound was 0.2-100 μM. Single data points for all compounds and DMSO controls were tested in two replicate rows in 96-well plates and corresponding absorbance readings were averaged for the quantification of remaining bacterial biofilms. Reported percent dispersion of biofilms was determined by the comparison of compound treated wells (the average of the two replicate wells) versus vehicle control wells without compound following background subtraction (i.e., an empty, untreated well) and reported from two independent experiments. DMSO was serially diluted at the same concentration as test compounds with a top concentration of 1% v/v.

[2] = test system: Acinetobacter baumannii (ATCC 19606) biofilm; assay: Biofilm inhibition, Mueller-Hinton broth, crystal violet; details: A. baumannii ATCC 19606; for inhibition at 100 µM: Acinetobacter baumannii, ATCC19606, read-out: % Biofilm Inhibition at 100 μM
Description: Biofilm Inhibition Protocol for A. baumannii (ATCC 19606): In a 96-well plate, ten two-fold serial dilutions of each compound tested were made from the highest concentration tested (100 μM) in a final volume of 100 μL in Mueller-Hinton broth (one column served as a blank). Each well was inoculated with ˜7×10^6 colony forming units per milliliter (corresponding to an OD600 of 0.01 prepared directly from an overnight culture). A lid was placed on the 96-well plate which was wrapped in suran wrap, placed in a humidifying chamber and incubated under static conditions at 37° C. for 24 hours. Following incubation, the media and planktonic bacteria were then removed from 96-well plates and the wells were then washed with water. The bacterial biofilms within the microtiter wells were stained with 200 μL of an aqueous 0.1% crystal violet solution that was allowed to stand for 10-20 minutes. The crystal violet stain was then removed, the wells were rinsed with water and dried. The crystal violet stain that remained on the inside of the wells (i.e., stained bacterial biofilm) on the inside of the wells was solubilized by the addition of 200 μL ethanol and absorbance was read at OD540 using a spectrophotometer. NOTE: The concentration range tested for each compound was 0.2-100 μM. Single data points for all compounds and DMSO controls were tested in two replicate rows in 96-well plates and corresponding absorbance readings were averaged for the quantification of planktonic growth and biofilm formation. Reported percent biofilm inhibition was determined by the comparison of compound treated wells (the average of the two replicate wells) versus vehicle control wells without compound following background subtraction (i.e., an empty, untreated well) and reported from 2 to 4 independent overnight cultures. DMSO was serially diluted at the same concentration as test compounds with a top concentration of 1% v/v.
The bromophenazines were also evaluated against the Gram-negative bacterium Acinetobacter baumannii in order to identify biofilm modulating small molecules against this emerging pathogen. Acinetobacter baumannii is notorious for its ability to persist as bacterial biofilms on hospital surfaces, giving rise to many multidrug-resistant nosocomial infections. Clinical isolates of A. baumannii have been identified that are resistant to every class of antibiotic clinically used. The bromophenazines were evaluated against Acinetobacter baumannii ATCC 19606 in biofilm inhibition assays. Bromophenazines were allowed to incubate in 96-well plates with Acinetobacter baumannii (˜7×10^6 CFUmL^−1 by adjusting an overnight culture to an OD600˜0.01) for 24 hours at 37° C. using Mueller-Hinton broth followed by spectrophometer readings of each plate to evaluate planktonic growth (OD600) and biofilm formation (OD540 after crystal violet stain of biofilms inside microtiter wells). […] This biofilm inhibition with activation of planktonic growth activity was dose-dependent with bromophenazine 17a (see FIG. 20).

[3] = test system: Staphylococcus aureus (ATCC 25923) biofilm; assay: Biofilm inhibition, crystal violet staining; set-up: MIC/IC50 Biofilm: unit not given here; details: for Phenotype: planktonic growth vs biofilm formation; for IC50: Staphylococcus aureus, ATCC25923; for MIC/IC50 Biofilm: ratio of MIC to IC50 of biofilm inhibition
Description: Biofilm Inhibition Protocol for S. aureus (ATCC 25923). A serial two-fold dilution of 2× bromophenazine small molecule concentration was made in 100 μL tryptic soy broth (TSB) medium with 0.5% glucose were delivered into 0.1% gelatin (Millipore) coated 96-well tissue culture plates. […] To each well, 100 μL of TSB with 0.5% glucose containing 2×10^6 CFU/mL Staphylococcus aureus cells, prepared from fresh culture (OD600 of 0.8), was added. The plates were incubated at 37° C. for 24 hours. The wells were gently rinsed by submerging the entire plates in a tub of cold, running tap water. The wells were then fixed with 200 μL methanol for 15 minutes. After the plates were air dried, the biofilms were stained with 100 μL of 1% crystal violet for 10 minutes. The plates were again rinsed with running water. After drying in air, quantitative assessment of biofilm formation was obtained by extracting the crystal violet associated with the remaining biofilm with 100 μL per well of the following bleaching solution (methanol:glacial acetic acid:water (v/v/v)=4:1:5). This bleaching solution dissolved the bound crystal violet and produced a violet-colored solution in each well. The intensity of coloration was determined by measuring the absorbance at 540 nm.

[4] = A. baumannii ATCC 19606, read-out: % Biofilm Dispersion at 100 μM
[5] = S. aureus ATCC 25923, single replicate screen, read-out: Biofilm Inhibition IC50
[6] = read-out: % Biofilm Dispersion at 100 μM, A. baumannii ATCC 19606
[7] = S. aureus, three independent experiments, read-out: Biofilm inhibition IC50 (triplicate)

IC50 [3, 5] [nM]	MIC/IC50 Biofilm ([3]; S. aureus ATCC 25923)	IC50 [3, 7] [nM]	SMILES	Biofilm Dispersal Agent? ([1]; A. baumannii ATCC 19606)	percent biofilm dispersion at 100 µM [1, 4] [%]	Phenotype [2]	inhibition at 100 µM [2] [%]	Phenotype ([3]; S. aureus ATCC 25923)	percent biofilm dispersion at 100 µM [1, 6] [%]
920	1.7	–	CCC(=O)Oc1c(Br)cc(Br)c2nc3ccccc3nc12 [Compound 4a]	Yes	53 to 57	antibacterial	99 ± 1	antibacterial	–
12100	>8.3	–	O=C(CCCC(=O)Oc1c(Br)cc(Br)c2nc3ccccc3nc12)Oc1c(Br)cc(Br)c2nc3ccccc3nc12 [Compound 5a]	Yes	30 ± 3	–	59 ± 11	–	–
760	2.1	–	O=C(OCCc1ccccc1)Oc1c(Br)cc(Br)c2nc3ccccc3nc12 [Compound 8a]	Yes	32 ± 4	antibacterial	97 ± 2	antibacterial	–
810	–	1130	O=C(Oc1c(Br)cc(Br)c2nc3ccccc3nc12)c1ccc(Br)cc1 [Compound 12a]	No	5 ± 12	–	34 ± 4	–	–
640	–	770	O=C(Oc1c(Br)cc(Br)c2nc3ccccc3nc12)c1ccc(Cl)cc1 [Compound 14a]	No	7 ± 2	–	25 ± 3	–	–
360	4.3	–	O=C(Oc1c(Br)cc(Br)c2nc3ccccc3nc12)c1cccc([N+](=O)[O-])c1 [Compound 15a]	Yes	36 ± 2	–	25 ± 6	antibacterial	–
450	–	550	Cc1ccc(C(=O)Oc2c(Br)cc(Br)c3nc4ccccc4nc23)cc1 [Compound 18a]	No	-1 ± 6	inactive	1 ± 5	–	–
760	–	–	O=C(Oc1c(Br)cc(Br)c2nc3ccccc3nc12)c1ccco1 [Compound 23a]	No	17 ± 14	antibacterial	86 ± 12	antibacterial	–
760	1.0	–	O=C(OCC(Cl)(Cl)Cl)Oc1c(Br)cc(Br)c2nc3ccccc3nc12 [Compound 27a]	Yes	38 ± 6	antibacterial	99 ± 1	antibacterial	–
770	2.0	–	COC(=O)Oc1c(Br)cc(Br)c2nc3ccccc3nc12 [Compound 28a]	Yes	53 to 57	antibacterial	99 ± 1	antibacterial	–

SMILES	IC50 [3, 5] [nM]	MIC/IC50 Biofilm ([3]; S. aureus ATCC 25923)	IC50 [3, 7] [nM]	Biofilm Dispersal Agent? ([1]; A. baumannii ATCC 19606)	percent biofilm dispersion at 100 µM [1, 4] [%]	Phenotype [2]	inhibition at 100 µM [2] [%]	Phenotype ([3]; S. aureus ATCC 25923)	percent biofilm dispersion at 100 µM [1, 6] [%]
Oc1c(Br)cc(Br)c2nc3ccccc3nc12 [Compound 11, 2,4-Dibromophenazin-1-ol]	410	–	–	Yes	–	antibacterial	98 ± 1	antibacterial	53 to 57
CC(=O)Oc1c(Br)cc(Br)c2nc3ccccc3nc12 [Compound 21, 2,4-Dibromophenazin-1-yl acetate]	420	2.8	–	Yes	–	antibacterial	98 ± 1	antibacterial	53 to 57
O=C(Oc1c(Br)cc(Br)c2nc3ccccc3nc12)c1ccccc1 [Compound 23, 2,4-Dibromophenazin-1-yl benzoate]	1710	0.9	–	No	–	–	51 ± 6	antibacterial	-1 ± 6
